Among the test systems are NCI-H460 lung; MDA-MB-435; SR leukemia; K-562 leukemia; UACC-257 melanoma; A549 NSCLC; OVCAR-4 ovarian; 786-0 renal; M14 melanoma; HOP-92 NSCLC.
What all share (test): NCI tumour cell line growth inhibition, 48 h

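1) Cells in 96-well plates. 2) Compound, 48 h, 5 concentrations. 3) Linear interpolation between surrounding doses. 4) Unreached endpoint = highest concentration. GI50: concentration for 50% inhibition of growth. TGI denotes the concentration required for complete inhibition of growth.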 Some results are limits rather than exact numbers.

Ten molecules from PubChem BioAssay (NCI) can be followed below.

Take `O=C1C=CC(=O)c2cc(Sc3ccccc3)c(=O)ccc21`: the TGI was 47.6 µM in the test on NCI-H460 lung; 71 µM in the test with MDA-MB-435; 5.96 µM with SR leukemia; 8.75 µM in the test on K-562 leukemia; 33.6 µM with UACC-257 melanoma; 39.5 µM with A549 NSCLC. Also, the TGI with OVCAR-4 ovarian is 23.2 µM; in the test on 786-0 renal it was 31.9 µM; with M14 melanoma, 41.3 µM; in the test on HOP-92 NSCLC, more than 52.7 µM.
For the molecule `Cc1cc(C)c(Cn2cnc3c(Cl)ncnc32)c(C)c1CCl`, the GI50 in the test on NCI-H460 lung is 32.7 µM; in the test on MDA-MB-435, more than 100 µM; in the test with SR leukemia, 12.7 µM; in the test on K-562 leukemia it was 44.2 µM; in the test with A549 NSCLC it was 37.7 µM; in the test on 786-0 renal, more than 100 µM. Also, the GI50 in the test with M14 melanoma was 99.4 µM. In addition, the TGI in the test with NCI-H460 lung is more than 100 µM; in the test on MDA-MB-435, more than 100 µM; in the test with SR leukemia, 47.4 µM; in the test with K-562 leukemia it was more than 100 µM; in the test with A549 NSCLC, more than 100 µM; with 786-0 renal it was more than 100 µM. The TGI in the test with M14 melanoma is more than 100 µM.
For the molecule `COc1ccc(/C=N\Nc2ccc([N+](=O)[O-])cn2)cc1OC`, the GI50 with MDA-MB-435 is more than 100 µM; in the test with SR leukemia it was more than 100 µM; in the test on K-562 leukemia it was more than 100 µM; with UACC-257 melanoma, more than 100 µM; with 786-0 renal it was 3.46 µM; in the test on M14 melanoma, more than 100 µM. Further, the TGI with MDA-MB-435, with SR leukemia, with K-562 leukemia, with UACC-257 melanoma, with 786-0 renal and in the test with M14 melanoma was more than 100 µM throughout.
In the case of `N#CC1=C(N)NC(N2CCOCC2)=NC12Nc1ccccc1N2`, the GI50 with MDA-MB-435 was 31 µM; with SR leukemia, 28.8 µM; in the test on K-562 leukemia, more than 100 µM; in the test with UACC-257 melanoma, 22.9 µM; in the test with A549 NSCLC, 39.8 µM; with OVCAR-4 ovarian it was more than 100 µM. Also, the GI50 is 13 µM in the test on 786-0 renal, more than 100 µM in the test on M14 melanoma and more than 100 µM in the test on HOP-92 NSCLC. The TGI was more than 100 µM in the test with MDA-MB-435; more than 100 µM in the test on SR leukemia; more than 100 µM in the test on K-562 leukemia; 49.1 µM in the test on UACC-257 melanoma; more than 100 µM in the test with A549 NSCLC; more than 100 µM in the test with OVCAR-4 ovarian. Moreover, the results for the TGI in the test with 786-0 renal, with M14 melanoma and with HOP-92 NSCLC were 40 µM, more than 100 µM and more than 100 µM, respectively.
For `Cc1cn2c(/C=N/N=C(N)N)c(-c3cccs3)nc2s1`, the GI50 in the test on NCI-H460 lung is 5.46 µM; with MDA-MB-435 it was 4.96 µM; in the test with SR leukemia it was 2 µM; with K-562 leukemia, 2.06 µM; with UACC-257 melanoma, 2.54 µM; in the test on A549 NSCLC it was 10.6 µM. The figures for the GI50 in the test with 786-0 renal and in the test on M14 melanoma were 2.42 µM and 1.63 µM, respectively. Further, the TGI in the test on NCI-H460 lung is 26.7 µM; in the test with MDA-MB-435, 18.5 µM; with SR leukemia, 3.99 µM; with K-562 leukemia, 5.43 µM; in the test on UACC-257 melanoma it was 6.14 µM; with A549 NSCLC, 31.1 µM. Also, the TGI with 786-0 renal stood at 6.06 µM; in the test on M14 melanoma it was 3.01 µM.
Take `COc1cccc(NC(=O)c2sc3nc4c(cc3c2N)C(=O)CCC4)c1`: the GI50 with NCI-H460 lung was 0.0953 µM; in the test with MDA-MB-435, 0.0221 µM; in the test with SR leukemia, 0.133 µM; in the test on K-562 leukemia, 0.0513 µM; in the test on A549 NSCLC, 0.103 µM; in the test on 786-0 renal it was 0.366 µM. For the same molecule, the GI50 in the test on M14 melanoma was 0.0943 µM; in the test with HOP-92 NSCLC, 0.0482 µM. Further, the TGI was more than 100 µM in the test on NCI-H460 lung; 0.0548 µM with MDA-MB-435; more than 100 µM in the test with SR leukemia; more than 100 µM in the test on K-562 leukemia; more than 100 µM with A549 NSCLC; more than 100 µM with 786-0 renal. Moreover, the TGI is more than 100 µM in the test with M14 melanoma and 26.8 µM in the test on HOP-92 NSCLC.
In the case of `SCCSCCCSCCS`, the TGI in the test with NCI-H460 lung was more than 100 µM; in the test with MDA-MB-435 it was more than 100 µM; in the test on SR leukemia, 32.7 µM; in the test on K-562 leukemia, more than 100 µM; in the test with UACC-257 melanoma, more than 100 µM; in the test with A549 NSCLC, more than 100 µM. Moreover, the TGI with OVCAR-4 ovarian was 98.2 µM; with 786-0 renal, more than 100 µM; in the test on M14 melanoma it was more than 100 µM.
As for `OCC(O)c1nc2ccc3[nH]ncc3c2c2c1CCCC2` (stereo not drawn), the GI50 with NCI-H460 lung is 1.49 µM; with MDA-MB-435, 1.42 µM; in the test on SR leukemia it was 0.658 µM; in the test with K-562 leukemia, 1.91 µM; in the test on UACC-257 melanoma, 1.8 µM; in the test on A549 NSCLC, 1.67 µM. Further, the GI50 is 2.49 µM with OVCAR-4 ovarian, 1.77 µM with 786-0 renal and 1.17 µM in the test with M14 melanoma. Besides, the TGI was 5.43 µM in the test on NCI-H460 lung; 4.31 µM in the test on MDA-MB-435; 4.52 µM with SR leukemia; more than 50 µM with K-562 leukemia; more than 50 µM in the test on UACC-257 melanoma; more than 50 µM with A549 NSCLC. Moreover, the figures for the TGI in the test with OVCAR-4 ovarian, with 786-0 renal and in the test on M14 melanoma were more than 50 µM, more than 50 µM and 2.78 µM, respectively.
Take `Cn1c2ccc(Br)cc2c2c3c(c4c5ccccc5[nH]c4c21)C(=O)N(O)C3=O`: the GI50 with NCI-H460 lung was 0.04 µM; with MDA-MB-435, 0.18 µM; in the test with SR leukemia, 0.0228 µM; with K-562 leukemia, 0.168 µM; with A549 NSCLC it was 0.63 µM; in the test on OVCAR-4 ovarian, 0.244 µM. Further, the GI50 with 786-0 renal is 0.174 µM; in the test on M14 melanoma it was 0.0877 µM; in the test on HOP-92 NSCLC, 0.0893 µM. Besides, the TGI turned out to be 0.182 µM in the test on NCI-H460 lung; 0.498 µM with MDA-MB-435; 2.64 µM in the test with SR leukemia; 2.49 µM in the test on A549 NSCLC; 0.705 µM in the test with OVCAR-4 ovarian; 0.421 µM in the test on 786-0 renal. Further, the TGI is 0.307 µM with M14 melanoma and 0.451 µM in the test with HOP-92 NSCLC.
Turning to `N#CCN/C=C\C(=O)c1ccc(Cl)cc1`, the GI50 in the test with NCI-H460 lung was 42.1 µM; with MDA-MB-435 it was 30.3 µM; with SR leukemia, 11.5 µM; in the test on K-562 leukemia, 31.1 µM; with UACC-257 melanoma, 31.9 µM; with A549 NSCLC it was more than 100 µM. Also, the figures for the GI50 with OVCAR-4 ovarian, in the test with 786-0 renal and with M14 melanoma were 76.9 µM, 33.4 µM and 20.3 µM, respectively. The TGI in the test with NCI-H460 lung was more than 100 µM; in the test on MDA-MB-435, more than 100 µM; in the test on SR leukemia it was 44.1 µM; in the test on K-562 leukemia it was more than 100 µM; with UACC-257 melanoma it was more than 100 µM; with A549 NSCLC, more than 100 µM. In addition, the TGI in the test on OVCAR-4 ovarian, in the test with 786-0 renal and in the test on M14 melanoma was more than 100 µM each time.
